# In patent US4007201A, “Novel pyrazole derivatives” (Kyorin Pharmaceutical Co. Ltd., priority 1975, dated 1977):
# Like-named read-outs stand apart in the source and are kept apart here.
# How the values were obtained:
# Format in all cases: in vivo, male Sprague Dawley rats
# [1] = system: blood glucose level in non-diabetic rats; assay: Hypoglycemic activity in non-diabetic rats (screening test); conditions: Rattus norvegicus, 100 mg/kg oral, fasted, glucose s.c.
# Method: (§1) These new compounds of the present invention are very useful as anti-diabetic agents, which is supported from the following pharmacological studies. The animals used for the pharmacological studies were male Sprague Dawley rats exept otherwise noted. 1. Hypoglycemic activity in non-diabetic rats (screening test)
# The rats were fasted for 16 - 18 hours prior to the experiment and those weighing 140 - 160g were used. Glucose solution (100 mg/0.5ml/150g body weight) was subcutaneously injected on the fasted rats. Each of the present compounds was suspended in 1% carboxymethyl cellulose (CMC), and about 0.5 ml of the suspension (corresponding to 100 mg/kg of the compound per body weight) was orally administered. Blood samples were taken from the tail vein of the rats at 2 and 5 hours after the administration, and the blood glucose level in each sample (0.1 ml) was determined by the micro method of Momose as described in SOGO-RINSHO 11, 120 (1962).
# 3,5-Dinitrophthalic acid is reduced with glucose to stable orange-red azo-compound via red hydroxyaminophthalic acid in basic media.
# To 0.5ml of water was added 0.1ml of blood and shaken to hemolyze, and to which was added 1.7ml of 0.06N barium hydroxide solution. To the resulting dark-brown solution was added 1.7ml of zinc sulfate solution (1g/dl), and which was shaken thoroughly and allowed to stand for 2-3min followed by centrifugation.
# One ml of 3,5-dinitrophthalic acid solution (1.5g of monopyridinium-3,5-dinitrophthalate in 500ml of water) and 1 ml of sodium carbonatesodium hyposulfite solution (125-25g/500ml) were added to 2ml of spernatant solution. The solution was heated at 100° C for 10 min. After cooling with running water for 3 min, water was added to make 20ml.
# To 2ml of water were added 3,5-dinitrophthalic acid solution and an alkaline solution, and the solution was treated as mentioned above.
# As the absorbance of reference at 450nm was adjusted to 0, the absorbance of sample corresponded to blood glucose level.
# [2] = system: blood glucose level in non-diabetic rats; assay: Blood glucose level in non-diabetic rats at 90 minutes; conditions: 100 mg/kg oral
# Method: as §1
# (§2) The rats were fasted for 16-18 hours, and those weighing 130-160g were used. The compound 4 suspended in 1% CMC was orally administered to the fasted rats, and at 90 minutes after administration blood was drawn from the […] vena cava under anesthesia with sodium pentobarbital. The blood glucose level was determined by the method of Momose, and the serum FFA level was determined by the method of Itaya and Ui as described in J. Lipid Res., 6, 16 (1965), respectively.
# [3] = system: blood glucose level in streptozotocin-diabetic rats; assay: Hypoglycemic effect in streptozotocin-diabetic rats; conditions: Rattus norvegicus; 100 mg/kg oral; 4 hours
# Method: The animals used for the pharmacological studies were male Sprague Dawley rats exept otherwise noted. 1. […]
# The rats were fasted for 16 hours, and then streptozotocin was intravenously injected in a dose of 65 mg/kg. Oral administration of the compound 4 was performed at 48 hours after the injection of streptozotocin. Blood samples were taken at 4 hours after the oral administration, and the blood glucose level in each sample was determined.
# [4] = system: serum FFA level in alloxan diabetic rats; assay: Serum FFA level in alloxan diabetic rats, 10 consecutive days; conditions: 100 mg/kg, 10 consecutive days
# Method: as §1
# (§3) Alloxan diabetic rats were obtained as follows. Namely, 2.5% fresh solution of alloxan (50mg/kg) was injected into the tail vein of male rats, and the rats were daily injected with insulin (1-4 units/day) from the 7th day after the administration of alloxan. The alloxan diabetic rats which were survived for more than 2 months with daily injection of insulin were used. The alloxan diabetic rats were fasted for 24 hours after the last treatment with insulin, and then the compound of the present invention was orally administered. The blood glucose levels were determined by the micro method of Momose before and 2, 4 and 6 hours after the administration.
# (§4) The alloxan diabetic rats which were prepared and then preserved for 6 months with insulin as described in the previous experiment were used.
# [5] = system: blood glucose level in alloxan diabetic rats; assay: Hypoglycemic effect in alloxan diabetic rats; conditions: ± SE
# Method: as §1, §3
# [6] = system: serum cholesterol level in alloxan diabetic rats; assay: Serum cholesterol level in alloxan diabetic rats, 10 consecutive days; conditions: 100 mg/kg, 10 consecutive days
# Method: as §1, §3, §4
# [7] = system: serum FFA level in non-diabetic rats; assay: Serum free fatty acids (FFA) level in non-diabetic rats at 90 minutes; conditions: 100 mg/kg oral
# Method: as §1, §2
# [8] = system: serum FFA level in fasted rats; assay: Time course of the serum FFA level in fasted rats (FIG. 1); conditions: 50 mg/kg oral; 0.5, 1, 2, 4 and 6 hours
# Method: as §1
# Further experiment was performed to clarify the effectiveness of the compound 4 on the serum FFA. Blood samples were taken at 0.5, 1, 2, 4 and 6 hours after an oral administration of 50 mg/kg to the fasted rats and the serum FFA levels were determined.
# [9] = system: blood glucose level in alloxan diabetic rats; assay: Blood glucose level in alloxan diabetic rats loaded with much quantity of glucose; conditions: alloxan diabetic rats; dose not stated
# Method: as §1
# Respective dose of the compound 4 (12.5 and 100 mg/kg) together with 2g/kg of glucose was orally administered to the alloxan diabetic rats.
# [10] = 2 hours, read-out: Reduction % of blood glucose from control after 2 hours
# [11] = 5 hours, read-out: Reduction % of blood glucose from control after 5 hours
Structure (SMILES),"inhibition in vivo at 100 mg/kg [1, 10]","inhibition in vivo at 100 mg/kg [1, 11]",other results
"CCOC(=O)NCCc1ccc(S(=O)(=O)NCCC(=O)n2nc(C)cc2C)cc1 [Example 7, 1-≡N-[p-(2-ethoxycarbonylaminoethyl)benzenesulfonyl]-β -alanyl.qu adrature.-3,5-dimethylpyrazole]",41.6%,23.3%,–
"Cc1cc(C)n(C(=O)[C@H](C)NS(=O)(=O)c2ccc(Cl)cc2)n1 [Example 13, 1-[N-(p-chlorobenzenesulfonyl)-alanyl]-3,5-dimethylpyrazole]",51.3%,5%,–
"[H]/N=C(/N)N/C(=N/[H])NCCc1ccccc1 [Phenformin, phenethylbiguanide, reference compound]",–,–,"Blood glucose level [2]: 103.0 ± 6.9 mg/dL; inhibition at 100 mg/kg [3]: 79.9 ± 2.9%; FFA [4]: 89.9 ± 16.4 μ Eq/dl serum; Blood glucose before administration ([5]; 100 mg/kg oral group, before administration (baseline)): 368.7 ± 31.3 mg%; Blood glucose 2 hours ([5]; 100 mg/kg oral, 2 hours): 262.2 ± 43.3 mg%; Blood glucose 4 hours ([5]; 100 mg/kg oral, 4 hours): 196.0 ± 48.9 mg%; Blood glucose 6 hours ([5]; 100 mg/kg oral, 6 hours): 133.7 ± 29.3 mg%; Cholesterol [6]: 63.5 ± 5.4 mg/dl serum; Serum FFA level [7]: 59.8 ± 18.0 μ Eq/dl"
"Cc1cc(C)n(C(=O)CCNS(=O)(=O)c2ccc(CCNC(=O)c3cnccn3)cc2)n1 [Example 3, 1-≡N-≡ p-[2-(2-pyrazinecarbonyl-amino)ethyl]benzenesulfonyl.quadrature. -β-alanyl.quadrature. -3,5-dimethylpyrazole]",41.7%,25.7%,–
"Cc1cc(C)n(C(=O)CNS(=O)(=O)c2ccc(C3CCCCC3)cc2)n1 [Example 10, 1-[N-(p-cyclohexylbenzenesulfonyl)-glycyl]-3,5-dimethylpyrazole]",42.1%,3.3%,–
"Cc1cc(C)n(C(=O)CCNS(=O)(=O)c2ccccc2)n1 [Example 1, 1-(N-benzenesulfonyl-β-alanyl)-3,5-dimethylpyrazole]",22.1%,19.8%,–
COCCOc1cnc(NS(=O)(=O)c2ccccc2)nc1 [sodium glymidine],–,–,"Effect on serum FFA level (in words, FIG. 1) [8]: only a slight suppression; Hypoglycemic effect (in words) [9]: no hypoglycemic effect"
"Cc1cc(C)n(C(=O)[C@H](Cc2ccccc2)NS(=O)(=O)c2ccc(Cl)cc2)n1 [Example 14, 1-[N-(p-chlorobenzenesulfonyl)-phenylalanyl]-3,5-dimethylpyrazole]",43.6%,-0.9%,–
"Cc1cc(C)n(C(=O)CNS(=O)(=O)c2ccc(CC(C)C)cc2)n1 [Example 11, 1-[N-(p-isobutylbenzenesulfonyl)-glycyl]-3,5-dimethylpyrazole]",37.9%,1.4%,–
"COc1ccc(Cl)cc1C(=O)NCCc1ccc(S(=O)(=O)NCC(=O)n2nc(C)cc2C)cc1 [Example 9, 1-≡N-≡p-[2-(2-methoxy-5-chlorobenzoylamino)-ethyl]benzenesulfonyl.quadrature.glycyl.quadrature.-3,5-dimethyl-pyrazole]",48.1%,17.7%,–
"CC(=O)NCCc1ccc(S(=O)(=O)NCCC(=O)n2nc(C)cc2C)cc1 [Example 2, 1-≡N-[p-(2-acetaminoethyl)benzene-sulfonyl]-β-alanyl.quadrature. -3,5-dimethylpryrazole]",37.1%,26%,–
"Cc1cc(C)n(C(=O)CCNS(=O)(=O)c2ccc(Cl)cc2)n1 [Example 8, 1-[N-(p-chlorobenzenesulfonyl)-β-alanyl]-3,5-dimethylpyrazole]",42.5%,22.1%,–
"Cc1cc(C)n(C(=O)C(NS(=O)(=O)c2ccc(Cl)cc2)c2ccccc2)n1 (stereo not drawn) [Example 12, 1-[N-(p-chlorobenzenesulfonyl)-α-phenylglycyl]-3,5-dimethylpyrazole]",32.6%,4%,–
"CCOC(=O)NCCc1ccc(S(=O)(=O)NCC(=O)n2nc(C)cc2C)cc1 [Example 6, 1-≡N-[p-(2-ethoxycarbonylaminoethyl)benzenesulfonyl]-glycyl.quadrature.-3,5-dimethylpyrazole]",33.3%,22.1%,–
"CC(=O)NCCc1ccc(S(=O)(=O)NCC(=O)n2nc(C)cc2C)cc1 [Example 5, 1-≡N-[p-(2-acetaminoethyl)-benzenesulfonyl]-glycyl.quadrature.-3,5-dimethylpyrazole]",35.2%,34.1%,–
